Results on seven compounds are retold here after US20240279278A1, “NMU RECEPTOR 2 AGONISTS” (Boehringer Ingelheim International GmbH, priority 2023, published 2024).

What all share (format): cell-based
In assay [1] the target is T1, human NMUR1 receptor (Homo sapiens, UniProt Q9HB89).
T1 construct: expressed in transfected cells; host or cells: CHO-K1
T1 sequence (Q9HB89 1-426): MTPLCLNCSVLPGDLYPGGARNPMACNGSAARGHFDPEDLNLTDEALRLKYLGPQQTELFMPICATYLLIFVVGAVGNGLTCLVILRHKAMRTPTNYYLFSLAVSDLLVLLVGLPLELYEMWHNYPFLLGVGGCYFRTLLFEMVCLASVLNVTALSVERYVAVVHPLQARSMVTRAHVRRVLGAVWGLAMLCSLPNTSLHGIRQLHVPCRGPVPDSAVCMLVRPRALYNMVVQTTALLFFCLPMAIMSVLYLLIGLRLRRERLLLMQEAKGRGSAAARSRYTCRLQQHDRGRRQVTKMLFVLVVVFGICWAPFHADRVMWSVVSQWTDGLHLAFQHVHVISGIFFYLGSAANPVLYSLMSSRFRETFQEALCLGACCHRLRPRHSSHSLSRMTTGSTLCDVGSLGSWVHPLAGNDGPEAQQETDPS
Kind of assay: IP1 Gq HTRF assay, activation of human NMUR1 in buffer. As to conditions: CHO-K1 cells expressing human NMUR1, stimulation buffer with 0.1% BSA; read-out: EC50 (hNMUR1) buffer. The essentials: (§1)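 IP-One HTRF competition (665/620 nm ratio) read after 1 h agonist exposure at 37 °C in pH 7.4 HEPES/HBSS stimulation buffer containing 50 mM LiCl, 0.1% BSA, 1% DMSO. Cells: CHO-K1 stably expressing human NMUR2 or NMUR1. EC50 by 4-parameter nonlinear regression of 8-point curves.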
(Time-resolved FRET reads energy transfer from a long-lived donor to a nearby acceptor.)

Assay [2] concerns the target T2, human NMUR2 receptor (Homo sapiens, UniProt Q9GZQ4). Kind of assay: IP1 Gq HTRF assay, activation of human NMUR2 in buffer. The arrangement: expressed in transfected cells; host or cells: CHO-K1. Conditions: CHO-K1 cells expressing human NMUR2, stimulation buffer with 0.1% BSA; read-out: EC50 (hNMUR2) buffer. The essentials:
as §1

Assay [3] addresses T2, human NMUR2 receptor. Kind of assay: IP1 Gq HTRF assay, activation of human NMUR2 in human plasma. Set-up: expressed in transfected cells; host or cells: CHO-K1. As to conditions: CHO-K1 cells expressing human NMUR2, 100% human plasma; read-out: EC50 (hNMUR2) human plasma. The gist of the method:
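EC50 obtained via 4-parameter sigmoidal regression of HTRF IP-One signal (665 nm/620 nm), which falls as intracellular IP1 rises. Stimulation: 1 h, 37° C, peptides in human plasma plus 50 mM LiCl, 1% DMSO final, on NMUR2-expressing CHO-K1 cells, 8 concentrations.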

Residues, ends and D or L forms follow the SMILES beside them.

T2 sequence (Q9GZQ4 whole entry): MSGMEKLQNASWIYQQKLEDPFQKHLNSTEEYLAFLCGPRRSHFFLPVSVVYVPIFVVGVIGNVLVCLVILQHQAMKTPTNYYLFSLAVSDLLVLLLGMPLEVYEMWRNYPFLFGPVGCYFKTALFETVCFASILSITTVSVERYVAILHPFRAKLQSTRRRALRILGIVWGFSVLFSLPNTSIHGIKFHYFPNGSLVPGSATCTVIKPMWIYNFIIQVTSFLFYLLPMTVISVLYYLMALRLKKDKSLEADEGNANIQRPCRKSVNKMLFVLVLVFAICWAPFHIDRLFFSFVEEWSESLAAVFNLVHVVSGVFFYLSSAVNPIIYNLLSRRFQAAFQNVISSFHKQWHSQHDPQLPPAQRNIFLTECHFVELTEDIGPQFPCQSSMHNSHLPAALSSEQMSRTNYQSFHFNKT

For the compound `CCCC[C@H](NC(=O)[C@H](CC(C)C)N(C)C(=O)[C@H](Cc1ccccc1)NC(=O)[C@H](Cc1ccc(O)cc1)NC(=O)CN1CCN(CCNC(=O)CN(C)C(=O)CN(C)C(=O)CN(C)C(=O)CN(C)C(=O)CN(C)C(=O)CN(C)C(=O)CN(C)C(=O)CN(C)C(=O)CN(C)C(=O)CC[C@H](NC(=O)CC[C@H](NC(=O)CC[C@H](NC(=O)CCCCCCCCCCCCCCCCCCC(=O)O)C(=O)O)C(=O)O)C(=O)O)CC1)C(=O)N[C@@H](CCN)C(=O)N(C)[C@@H](C)C(=O)N[C@@H](CCCNC(=N)N)C(=O)NCC(N)=O` [Compound 61, C20DA-gGlu3-Sar9-AEPipAc-Tyr-Phe-NMeLeu-Nle-Dbu-NMeAla-Arg-Gly-NH2] (HELM PEPTIDE1{[O=C(O)CCCCCCCCCCCCCCCCCCC(=O)[*:2]].[gGlu].[gGlu].[gGlu].[Sar].[Sar].[Sar].[Sar].[Sar].[Sar].[Sar].[Sar].[Sar].[O=C(CN1CCN(CCN[*:1])CC1)[*:2]].Y.F.[meL].[Nle].[Dab].[meA].R.G.[am]}$$$$V2.0), the EC50 (as a rule, the concentration at which the effect is half-maximal) in assay [1] is more than 1000 nM; in assay [2], 4.6 nM; in assay [3], 14.1 nM.

Turning to `CCCC[C@H](NC(=O)[C@H](CC(C)C)N(C)C(=O)[C@H](Cc1ccccc1)NC(=O)[C@H](Cc1ccc(O)cc1)NC(=O)CN1CCN(CCNC(=O)CN(C)C(=O)CN(C)C(=O)CN(C)C(=O)CN(C)C(=O)CN(C)C(=O)CN(C)C(=O)CN(C)C(=O)CN(C)C(=O)CN(C)C(=O)CN(C)C(=O)CN(C)C(=O)CN(C)C(=O)CC[C@H](NC(=O)CC[C@H](NC(=O)CC[C@H](NC(=O)CC[C@H](NC(=O)CCCCCCCCCCCCCCCCCCC(=O)O)C(=O)O)C(=O)O)C(=O)O)C(=O)O)CC1)C(=O)N[C@@H](CCCCN)C(=O)N1CCC[C@H]1C(=O)N[C@@H](CCCNC(=N)N)C(=O)NCC(N)=O` [Compound 32, C20DA-gGlu4-Sar12-AEPipAc-Tyr-Phe-NMeLeu-Nle-Lys-Pro-Arg-Gly-NH2], the EC50 stood at 1200 nM in assay [1], 6.5 nM in assay [2] and 31.2 nM in assay [3].

As to `CCCC[C@H](NC(=O)[C@H](CC(C)C)N(C)C(=O)[C@H](Cc1ccccc1)NC(=O)[C@H](Cc1ccc(O)cc1)NC(=O)CN1CCN(C(=O)CN(C)C(=O)CN(C)C(=O)CN(C)C(=O)CN(C)C(=O)CN(C)C(=O)CN(C)C(=O)CN(C)C(=O)CN(C)C(=O)CN(C)C(=O)CN(C)C(=O)CN(C)C(=O)CN(C)C(=O)CN(C)C(=O)CN(C)C(=O)CN(C)C(=O)CC[C@H](NC(=O)CC[C@H](NC(=O)CC[C@H](NC(=O)CCCCCCCCCCCCCCCCC(=O)O)C(=O)O)C(=O)O)C(=O)O)CC1)C(=O)N[C@@H](CCCNC(=N)N)C(=O)N1CCC[C@H]1C(=O)N[C@@H](CCCNC(=N)N)C(=O)NCC(N)=O` [Compound 75, C18DA-gGlu3-Sar15-PipAc-Tyr-Phe-NMeLeu-Nle-Arg-Pro-Arg-Gly-NH2] (HELM PEPTIDE1{[O=C(O)CCCCCCCCCCCCCCCCC(=O)[*:2]].[gGlu].[gGlu].[gGlu].[Sar].[Sar].[Sar].[Sar].[Sar].[Sar].[Sar].[Sar].[Sar].[Sar].[Sar].[Sar].[Sar].[Sar].[Sar].[O=C(CN1CCN([*:1])CC1)[*:2]].Y.F.[meL].[Nle].R.P.R.G.[am]}$$$$V2.0), the concentration giving a half-maximal response (EC50) is 130 nM in assay [1], 0.7 nM in assay [2] and 3.5 nM in assay [3].

Turning to `CCCC[C@H](NC(=O)[C@H](CC(C)C)N(C)C(=O)[C@H](Cc1ccccc1)NC(=O)[C@H](Cc1ccc(O)cc1)NC(=O)CN1CCN(CCNC(=O)CN(C)C(=O)CN(C)C(=O)CN(C)C(=O)CN(C)C(=O)CN(C)C(=O)CN(C)C(=O)CN(C)C(=O)CN(C)C(=O)CN(C)C(=O)CN(C)C(=O)CN(C)C(=O)CN(C)C(=O)CN(C)C(=O)CN(C)C(=O)CN(C)C(=O)CC[C@H](NC(=O)CC[C@H](NC(=O)CC[C@H](NC(=O)CCCCCCCCCCCCCCCCCCC(=O)O)C(=O)O)C(=O)O)C(=O)O)CC1)C(=O)N(C)[C@@H](CCCNC(=N)N)C(=O)N(C)[C@@H](C)C(=O)N[C@@H](CCCNC(=N)N)C(=O)NCC(N)=O` [Compound 36, C20DA-gGlu3-Sar15-AEPipAc-Tyr-Phe-NMeLeu-Nle-NMeArg-NMeAla-Arg-Gly-NH2] (HELM PEPTIDE1{[O=C(O)CCCCCCCCCCCCCCCCCCC(=O)[*:2]].[gGlu].[gGlu].[gGlu].[Sar].[Sar].[Sar].[Sar].[Sar].[Sar].[Sar].[Sar].[Sar].[Sar].[Sar].[Sar].[Sar].[Sar].[Sar].[O=C(CN1CCN(CCN[*:1])CC1)[*:2]].Y.F.[meL].[Nle].[meR].[meA].R.G.[am]}$$$$V2.0), the results for the EC50 in assay [1], in assay [2] and in assay [3] were 1400 nM, 4.7 nM and 18.3 nM, respectively.

For `CCCC[C@H](NC(=O)[C@H](CC(C)C)N(C)C(=O)[C@H](Cc1ccccc1)NC(=O)[C@H](Cc1ccc(O)cc1)NC(=O)CN1CCN(CCNC(=O)CN(C)C(=O)CN(C)C(=O)CN(C)C(=O)CN(C)C(=O)CN(C)C(=O)CN(C)C(=O)CN(C)C(=O)CN(C)C(=O)CN(C)C(=O)CN(C)C(=O)CN(C)C(=O)CN(C)C(=O)CC[C@H](NC(=O)CC[C@H](NC(=O)CC[C@H](NC(=O)CC[C@H](NC(=O)CCCCCCCCCCCCCCCCCCC(=O)O)C(=O)O)C(=O)O)C(=O)O)C(=O)O)CC1)C(=O)N[C@@H](CCCN)C(=O)N(C)[C@@H](C)C(=O)N[C@@H](CCCNC(=N)N)C(=O)NCC(N)=O` [Compound 13, C20DA-gGlu4-Sar12-AEPipAc-Tyr-Phe-NMeLeu-Nle-Orn-NMeAla-Arg-Gly-NH2], the EC50 amounted to 1200 nM in assay [1], 3.5 nM in assay [2] and 10.2 nM in assay [3].

For the compound `CCCC[C@H](NC(=O)[C@H](CC(C)C)N(C)C(=O)[C@H](Cc1ccccc1)NC(=O)[C@H](Cc1ccc(O)cc1)NC(=O)CN1CCN(CCNC(=O)CN(C)C(=O)CN(C)C(=O)CN(C)C(=O)CN(C)C(=O)CN(C)C(=O)CN(C)C(=O)CN(C)C(=O)CN(C)C(=O)CN(C)C(=O)CN(C)C(=O)CN(C)C(=O)CN(C)C(=O)CN(C)C(=O)CN(C)C(=O)CN(C)C(=O)CC[C@H](NC(=O)CC[C@H](NC(=O)CC[C@H](NC(=O)CCCCCCCCCCCCCCCCC(=O)O)C(=O)O)C(=O)O)C(=O)O)CC1)C(=O)N[C@@H](CCCCN)C(=O)N1CCC[C@H]1C(=O)N[C@@H](CCCNC(=N)N)C(=O)NCC(N)=O` [Compound 46, C18DA-gGlu3-Sar15-AEPipAc-Tyr-Phe-NMeLeu-Nle-Lys-Pro-Arg-Gly-NH2] (HELM PEPTIDE1{[O=C(O)CCCCCCCCCCCCCCCCC(=O)[*:2]].[gGlu].[gGlu].[gGlu].[Sar].[Sar].[Sar].[Sar].[Sar].[Sar].[Sar].[Sar].[Sar].[Sar].[Sar].[Sar].[Sar].[Sar].[Sar].[O=C(CN1CCN(CCN[*:1])CC1)[*:2]].Y.F.[meL].[Nle].K.P.R.G.[am]}$$$$V2.0), the EC50 in assay [1] is more than 1000 nM; in assay [2], 13 nM; in assay [3], 26.2 nM.

In the case of `CCCC[C@H](NC(=O)[C@H](CC(C)C)N(C)C(=O)[C@H](Cc1ccccc1)NC(=O)[C@H](Cc1ccc(O)cc1)NC(=O)CN1CCN(CCNC(=O)CN(C)C(=O)CN(C)C(=O)CN(C)C(=O)CN(C)C(=O)CN(C)C(=O)CN(C)C(=O)CN(C)C(=O)CN(C)C(=O)CN(C)C(=O)CN(C)C(=O)CN(C)C(=O)CN(C)C(=O)CN(C)C(=O)CN(C)C(=O)CN(C)C(=O)CC[C@H](NC(=O)CC[C@H](NC(=O)CC[C@H](NC(=O)CCCCCCCCCCCCCCCCCCC(=O)O)C(=O)O)C(=O)O)C(=O)O)CC1)C(=O)N[C@@H](CCCN)C(=O)N(C)[C@@H](C)C(=O)N[C@@H](CCCNC(=N)N)C(=O)NCC(N)=O` [Compound 34, C20DA-gGlu3-Sar15-AEPipAc-Tyr-Phe-NMeLeu-Nle-Orn-NMeAla-Arg-Gly-NH2] (HELM PEPTIDE1{[O=C(O)CCCCCCCCCCCCCCCCCCC(=O)[*:2]].[gGlu].[gGlu].[gGlu].[Sar].[Sar].[Sar].[Sar].[Sar].[Sar].[Sar].[Sar].[Sar].[Sar].[Sar].[Sar].[Sar].[Sar].[Sar].[O=C(CN1CCN(CCN[*:1])CC1)[*:2]].Y.F.[meL].[Nle].[Orn].[meA].R.G.[am]}$$$$V2.0), the EC50 in assay [1] was more than 1000 nM; in assay [2] it was 9 nM; in assay [3], 24.6 nM.
